According to ChEMBL document CHEMBL4346655, “Synthesis and biological activities of artemisinin-piperazine-dithiocarbamate derivatives” (Eur J Med Chem, 2019):

Assays:
[1] = system: L02; assay: Cytotoxicity against human L02 cells incubated for 72 hrs by MTT assay; format: cell-based; settings: L02, 72 h
[2] = system: SMMC-7721; assay: Cytotoxicity against human SMMC7721 cells incubated for 72 hrs by MTT assay; format: functional, cell-based; settings: SMMC-7721, 72 h
[3] = system: SMMC-7721; assay: Induction of apoptosis in human SMMC7721 cells assessed as late apoptotic cells at 50 ug/ml incubated for 72 hrs by Annexin V-FITC/PI staining based flow cytometric analysis (reference value: 1.63 to 2.82%); format: functional
[4] = system: SMMC-7721; assay: Induction of apoptosis in human SMMC7721 cells assessed as early apoptotic cells at 50 ug/ml incubated for 72 hrs by Annexin V-FITC/PI staining based flow cytometric analysis (reference value: 1.31 to 1.65%); format: functional
[5] = system: SMMC-7721; assay: Induction of apoptosis in human SMMC7721 cells assessed as necrotic cells at 10 ug/ml incubated for 72 hrs by Annexin V-FITC/PI staining based flow cytometric analysis (reference value: 0.52 to 0.72%); format: functional
[6] = system: SMMC-7721; assay: Induction of apoptosis in human SMMC7721 cells assessed as live cells at 1 ug/ml incubated for 72 hrs by Annexin V-FITC/PI staining based flow cytometric analysis (reference value: 94.81 to 96.55%); format: functional
[7] = system: MCF7; assay: Cytotoxicity against human MCF7 cells incubated for 72 hrs by MTT assay; format: functional, cell-based; settings: MCF7, 72 h
[8] = system: SMMC-7721; assay: Induction of apoptosis in human SMMC7721 cells assessed as necrotic cells at 50 ug/ml incubated for 72 hrs by Annexin V-FITC/PI staining based flow cytometric analysis (reference value: 0.52 to 0.72%); format: functional
[9] = system: SMMC-7721; assay: Induction of apoptosis in human SMMC7721 cells assessed as early apoptotic cells at 10 ug/ml incubated for 72 hrs by Annexin V-FITC/PI staining based flow cytometric analysis (reference value: 1.31 to 1.65%); format: functional
[10] = system: SMMC-7721; assay: Induction of apoptosis in human SMMC7721 cells assessed as late apoptotic cells at 10 ug/ml incubated for 72 hrs by Annexin V-FITC/PI staining based flow cytometric analysis (reference value: 1.63 to 2.82%); format: functional
[11] = system: SMMC-7721; assay: Induction of apoptosis in human SMMC7721 cells assessed as necrotic cells at 1 ug/ml incubated for 72 hrs by Annexin V-FITC/PI staining based flow cytometric analysis (reference value: 0.52 to 0.72%); format: functional
[12] = system: SMMC-7721; assay: Induction of apoptosis in human SMMC7721 cells assessed as live cells at 50 ug/ml incubated for 72 hrs by Annexin V-FITC/PI staining based flow cytometric analysis (reference value: 94.81 to 96.55%); format: functional
[13] = system: SMMC-7721; assay: Induction of apoptosis in human SMMC7721 cells assessed as live cells at 10 ug/ml incubated for 72 hrs by Annexin V-FITC/PI staining based flow cytometric analysis (reference value: 94.81 to 96.55%); format: functional
[14] = system: MCF-10A; assay: Cytotoxicity against human MCF10A cells incubated for 72 hrs by MTT assay; format: cell-based
[15] = system: RWPE-1; assay: Cytotoxicity against human RWPE1 cells incubated for 72 hrs by MTT assay; format: cell-based; settings: RWPE-1, 72 h
[16] = system: SMMC-7721; assay: Induction of apoptosis in human SMMC7721 cells assessed as late apoptotic cells at 1 ug/ml incubated for 72 hrs by Annexin V-FITC/PI staining based flow cytometric analysis (reference value: 1.63 to 2.82%); format: functional
[17] = system: CCD-18Co; assay: Cytotoxicity against human CCD-18Co cells incubated for 72 hrs by MTT assay; format: cell-based
[18] = system: SMMC-7721; assay: Induction of apoptosis in human SMMC7721 cells assessed as early apoptotic cells at 1 ug/ml incubated for 72 hrs by Annexin V-FITC/PI staining based flow cytometric analysis (reference value: 1.31 to 1.65%); format: functional
[19] = system: DU-145; assay: Cytotoxicity against human DU145 cells incubated for 72 hrs by MTT assay; format: functional, cell-based; settings: DU-145, 72 h
[20] = system: HCT-116; assay: Cytotoxicity against human HCT116 cells incubated for 72 hrs by MTT assay; format: functional, cell-based; settings: HCT-116, 72 h

## Nc1ccn([C@@H]2O[C@H](CO)[C@@H](O)[C@@H]2O)c(=O)n1 [CYTARABINE]
[1]
  IC50: 210 nM
[2]
  IC50: 27.1 nM

## CC[C@]1(O)C[C@H]2CN(CCc3c([nH]c4ccccc34)[C@@](C(=O)OC)(c3cc4c(cc3OC)N(C=O)[C@H]3[C@@](O)(C(=O)OC)[C@H](OC(C)=O)[C@]5(CC)C=CCN6CC[C@]43[C@@H]65)C2)C1 [VINCRISTINE]
[1]
  IC50: 60 nM
[2]
  IC50: 10.3 nM

## C[C@H]1[C@H](N2CCN(C(=S)SCc3ccc4ccccc4c3)CC2)O[C@@H]2O[C@@]3(C)CC[C@H]4[C@H](C)CC[C@@H]1[C@@]24OO3
[1]
  IC50: 160 nM
[2]
  IC50: 24.3 nM

## C[C@H]1[C@H](N2CCN(C(=S)SCc3ccc(C#N)cc3)CC2)O[C@@H]2O[C@@]3(C)CC[C@H]4[C@H](C)CC[C@@H]1[C@@]24OO3
[1]
  IC50: 180 nM
[3]
  Activity: 21.86 - 24.63%
[4]
  Activity: 45.82 - 46.69%
[2]
  IC50: 2.5 nM
[5]
  Activity: 3.07 - 4.04%
[6]
  Activity: 61.22 - 63.68%
[7]
  IC50: 13.5 nM
[8]
  Activity: 1.5 - 1.77%
[9]
  Activity: 30.54 - 31.3%
[10]
  Activity: 12.36 - 14.62%
[11]
  Activity: 2.2 - 2.98%
[12]
  Activity: 28.05 - 29.95%
[13]
  Activity: 50.41 - 53.94%
[14]
  IC50: 22.4 nM
[15]
  IC50: 10.5 nM
[16]
  Activity: 6.72 - 9.36%
[17]
  IC50: 40.6 nM
[18]
  Activity: 26.43 - 27.05%
[19]
  IC50: 6.3 nM
[20]
  IC50: 40.2 nM

## CCCCCCCCCCCCCCCCCCSC(=S)N1CCN([C@@H]2O[C@@H]3O[C@@]4(C)CC[C@H]5[C@H](C)CC[C@@H]([C@H]2C)[C@@]35OO4)CC1
[1]
  IC50: 130 nM
[2]
  IC50: 16 nM

## C[C@H]1[C@H](N2CCN(C(=S)SCC(=O)OCc3ccccc3)CC2)O[C@@H]2O[C@@]3(C)CC[C@H]4[C@H](C)CC[C@@H]1[C@@]24OO3
[1]
  IC50: 150 nM
[2]
  IC50: 33.2 nM

## C[C@H]1[C@H](N2CCN(C(=S)SCc3ccc([N+](=O)[O-])cc3)CC2)O[C@@H]2O[C@@]3(C)CC[C@H]4[C@H](C)CC[C@@H]1[C@@]24OO3
[1]
  IC50: 170 nM
[2]
  IC50: 16.7 nM

## Cc1ccc(CSC(=S)N2CCN([C@@H]3O[C@@H]4O[C@@]5(C)CC[C@H]6[C@H](C)CC[C@@H]([C@H]3C)[C@@]46OO5)CC2)cc1
[1]
  IC50: 230 nM
[2]
  IC50: 10.2 nM

## C[C@H]1[C@H](N2CCN(C(=S)SCc3ccccc3)CC2)O[C@@H]2O[C@@]3(C)CC[C@H]4[C@H](C)CC[C@@H]1[C@@]24OO3
[1]
  IC50: 300 nM
[2]
  IC50: 26 nM

## C[C@H]1[C@@H](O)O[C@@H]2O[C@@]3(C)CC[C@H]4[C@H](C)CC[C@@H]1[C@@]24OO3 [ARTENIMOL]
[1]
  IC50: 360 nM
[2]
  IC50: > 100 nM

## C[C@H]1[C@H](N2CCN(C(=S)SCc3ccccc3Cl)CC2)O[C@@H]2O[C@@]3(C)CC[C@H]4[C@H](C)CC[C@@H]1[C@@]24OO3
[1]
  IC50: 200 nM
[2]
  IC50: 23.7 nM

## CCCCCSC(=S)N1CCN([C@@H]2O[C@@H]3O[C@@]4(C)CC[C@H]5[C@H](C)CC[C@@H]([C@H]2C)[C@@]35OO4)CC1
[1]
  IC50: 180 nM
[2]
  IC50: 37.1 nM

## C[C@H]1[C@H](N2CCN(C(=S)SCc3ccc(Br)cc3)CC2)O[C@@H]2O[C@@]3(C)CC[C@H]4[C@H](C)CC[C@@H]1[C@@]24OO3
[1]
  IC50: 150 nM
[2]
  IC50: 7 nM

## C[C@H]1[C@H](N2CCN(C(=S)SCc3ccc(Cl)cc3)CC2)O[C@@H]2O[C@@]3(C)CC[C@H]4[C@H](C)CC[C@@H]1[C@@]24OO3
[1]
  IC50: 170 nM
[2]
  IC50: 28.4 nM

## Cc1ccccc1CSC(=S)N1CCN([C@@H]2O[C@@H]3O[C@@]4(C)CC[C@H]5[C@H](C)CC[C@@H]([C@H]2C)[C@@]35OO4)CC1
[1]
  IC50: 250 nM
[2]
  IC50: 11.4 nM
